Measurements published in patent US11279733B2, “Peptide antibiotics” (priority 2017, dated 2022).
≈ marks a conversion by molar mass, not a printed value. Like-named read-outs stand apart in the source and are kept apart here. Positions of bridges follow the written chain, without caps; N, C: chain ends. Non-standard residues stand in square brackets, D forms with d. Residues, ends and D or L forms follow the SMILES beside them. *: point of attachment. dPhe(4-NO2) = N[C@H](Cc1ccc([N+](=O)[O-])cc1)C(=O)O; Decanoyl(3R-OH) = CCCCCCC[C@@H](O)CC(=O)*; Dab = NCC[C@H](N)C(=O)O

What was measured:
A. baumannii ATCC 19606 = details: ATCC 19606
Description: (§1) Bacteria were either obtained from American Type Culture Collection (ATCC; Manassas, Va., USA) or independent academic clinical isolate collections, as listed in Table 18 below. Bacteria were cultured in Nutrient broth (NB; Bacto Laboratories, catalogue No. 234000) or Mueller Hinton broth (MHB; Bacto Laboratories, catalogue No. 211443) at 37° C. overnight with shaking (˜180 RPM). A sample of each culture was then diluted 50-fold in fresh MHB and incubated at 37° C. for 2-3 h with shaking (˜180 RPM). Compound stock solutions were prepared as 0.64 mg/mL or 2.56 mg/mL in water. The compounds, at twice the final desired concentration, were serially diluted 2-fold across the wells of 96-well plates (Polystyrene, Corning, catalogue No. 3370). Mid-log phase bacterial cultures (after 2-3 h incubation) were diluted to a final concentration of 1×10^6 colony forming units (CFU)/mL, and 50 μL was added to each well giving a final cell density of 5×10^5 and a compound concentration range of 32 μg/mL to 0.015 μg/mL (128-0.06 μg/mL against P. aeruginosa PA9704).

A. baumannii GN_093 PmxR = details: GN 093 PmxR
Description: as §1

E. coli ATCC 25922 = details: ATCC 25922
Description: as §1

K. pneumoniae ATCC 13883 = details: ATCC 13883
Description: as §1

[1] = test system: K. pneumoniae ATCC 700603, MDR; details: ATCC 700603
Description: as §1

[2] = test system: K. pneumoniae ATCC BAA-2146, NDM-1 pos; details: ATCC BAA-2146
Description: as §1

[3] = test system: K. pneumoniae GN_102 PmxR; details: GN 102 PmxR
Description: as §1

[4] = test system: K. pneumoniae GN_106, PmxR; details: GN 106, PmxR
Description: as §1

P. aeruginosa ATCC 27853 = details: ATCC 27853
Description: as §1

[5] = test system: P. aeruginosa GN_043, PmxR
Description: as §1

[6] = test system: P. aeruginosa GN_105, PmxR; details: GN 105, PmxR
Description: as §1

[7] = test system: S. aureus ATCC 25923, MSSA; details: ATCC 25923
Description: as §1

| SMILES | MIC A. baumannii ATCC 19606 (A. baumannii ATCC 19606) | MIC A. baumannii GN_093 PmxR (A. baumannii GN_093 PmxR) | MIC E. coli ATCC 25922 (E. coli ATCC 25922) | MIC K. pneumoniae ATCC 13883 (K. pneumoniae ATCC 13883) | MIC K. pneumoniae ATCC 700603, MDR [1] | MIC K. pneumoniae ATCC BAA-2146, NDM-1 pos [2] | MIC K. pneumoniae GN_102 PmxR [3] | MIC K. pneumoniae GN_106, PmxR [4] | MIC P. aeruginosa ATCC 27853 (P. aeruginosa ATCC 27853) | MIC P. aeruginosa GN_043, PmxR ([5]; P. aeruginosa GN_043, PmxR) | MIC P. aeruginosa GN_105, PmxR [6] | MIC S. aureus ATCC 25923, MSSA [7] | MIC, A. baumannii ATCC 19606 (A. baumannii ATCC 19606) | MIC, E. coli ATCC 25922 (E. coli ATCC 25922) | MIC, K. pneumoniae ATCC 13883 (K. pneumoniae ATCC 13883) | MIC, K. pneumoniae ATCC 700603, MDR [1] | MIC, K. pneumoniae ATCC BAA-2146, NDM-1 pos [2] | MIC, P. aeruginosa ATCC 27853 (P. aeruginosa ATCC 27853) | MIC P. aeruginosa GN_043, PmxR ([5]; Table 6, polymyxin-resistant) | MIC, S. aureus ATCC 25923, MSSA [7] |
| --- | --- | --- | --- | --- | --- | --- | --- | --- | --- | --- | --- | --- | --- | --- | --- | --- | --- | --- | --- | --- |
| CCCCCCC[C@@H](O)CC(=O)N[C@H](Cc1c[nH]c2ccccc12)C(=O)N[C@H]1CCNC(=O)[C@H](CC(C)C)NC(=O)[C@H](CCN)NC(=O)[C@H](CCN)NC(=O)[C@H](Cc2ccccc2)NC(=O)[C@@H](CC(C)C)NC(=O)[C@H](CCN)NC1=O [compound 6426, 3(R)OH-nC9CO-D-Trp-cyc[L-Dab-L-Dab-D-Leu-L-Phe-L-Dab-L-Dab-L-Leu]] ({Decanoyl(3R-OH)}-[dW][Dab][Dab][dL]F[Dab][Dab]L; lactam 2-C) | 16 µg/mL (≈ 14.2 µM) | 16 µg/mL (≈ 14.2 µM) | 4 µg/mL (≈ 3.54 µM) | 8 µg/mL (≈ 7.08 µM) | 8 µg/mL (≈ 7.08 µM) | 8 µg/mL (≈ 7.08 µM) | 4 µg/mL (≈ 3.54 µM) | 4 µg/mL (≈ 3.54 µM) | 8 µg/mL (≈ 7.08 µM) | 8 µg/mL (≈ 7.08 µM) | 8 µg/mL (≈ 7.08 µM) | 8 µg/mL (≈ 7.08 µM) |  |  |  |  |  |  |  |  |
| CCCCCCC[C@@H](O)CC(=O)N[C@H](Cc1ccc([N+](=O)[O-])cc1)C(=O)N[C@H]1CCNC(=O)[C@H](CC(C)C)NC(=O)[C@H](CCN)NC(=O)[C@H](CCN)NC(=O)[C@H](Cc2ccccc2)NC(=O)[C@@H](CC(C)C)NC(=O)[C@H](CCN)NC1=O [compound 6433, 3(R)OH-nC9CO-D-4NO2Phe-cyc[L-Dab-L-Dab-D-Leu-L-Phe-L-Dab-L-Dab-L-Leu]] ({Decanoyl(3R-OH)}-[dPhe(4-NO2)][Dab][Dab][dL]F[Dab][Dab]L; lactam 2-C) | 8 µg/mL (≈ 7.04 µM) | 16 µg/mL (≈ 14.1 µM) | 8 µg/mL (≈ 7.04 µM) | 8 µg/mL (≈ 7.04 µM) | 8 µg/mL (≈ 7.04 µM) | 8 µg/mL (≈ 7.04 µM) | 4 µg/mL (≈ 3.52 µM) | 4 µg/mL (≈ 3.52 µM) | 8 µg/mL (≈ 7.04 µM) | 4 µg/mL (≈ 3.52 µM) | 8 µg/mL (≈ 7.04 µM) | 8 µg/mL (≈ 7.04 µM) |  |  |  |  |  |  |  |  |
| CCCCCCC[C@@H](O)CC(=O)N[C@H](Cc1c[nH]c2ccccc12)C(=O)N[C@H]1CCNC(=O)[C@H](CC(C)C)NC(=O)[C@H](CCN)NC(=O)[C@H](CCN)NC(=O)[C@H](CC(C)C)NC(=O)[C@@H](Cc2ccccc2)NC(=O)[C@H](CCN)NC1=O [compound 6441, 3(R)OH-nC9CO-D-Trp-cyc[L-Dab-L-Dab-D-Phe-L-Leu-L-Dab-L-Dab-L-Leu]] ({Decanoyl(3R-OH)}-[dW][Dab][Dab][dF]L[Dab][Dab]L; lactam 2-C) |  | 32 µg/mL (≈ 28.3 µM) |  |  |  |  | 8 µg/mL (≈ 7.08 µM) | 4 µg/mL (≈ 3.54 µM) |  |  | 16 µg/mL (≈ 14.2 µM) |  | 16 µg/mL (≈ 14.2 µM) | 16 µg/mL (≈ 14.2 µM) | 16 µg/mL (≈ 14.2 µM) | 8 µg/mL (≈ 7.08 µM) | 8 µg/mL (≈ 7.08 µM) | 16 µg/mL (≈ 14.2 µM) | 8 µg/mL (≈ 7.08 µM) | 8 µg/mL (≈ 7.08 µM) |
